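Tested at 5 concentrations; 48 h exposure; 96-well plates; endpoints linearly interpolated, else capped at highest concentration. Here, GI50 denotes the concentration required for 50% inhibition of growth. TGI denotes the concentration required for complete inhibition of growth.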
Assays:
Assay in all cases: NCI anticancer screen, dose series, 48 h
[1] = test system: SF-539 CNS
[2] = test system: HCC-2998 colon
[3] = test system: ACHN renal
[4] = test system: HOP-92 NSCLC
[5] = test system: 786-0 renal
[6] = test system: HCT-15 colon
[7] = test system: SK-OV-3 ovarian
[8] = test system: HL-60(TB) leukemia
[9] = test system: BT-549 breast
[10] = test system: TK-10 renal
[11] = test system: SNB-19 CNS
[12] = test system: DU-145 prostate
[13] = test system: OVCAR-3 ovarian
[14] = test system: K-562 leukemia
[15] = test system: CAKI-1 renal
[16] = test system: SK-MEL-2 melanoma
[17] = test system: MALME-3M melanoma
[18] = test system: SNB-75 CNS
[19] = test system: HT29 colon
[20] = test system: A498 renal
[21] = test system: COLO 205 colon
[22] = test system: NCI-H522 lung
[23] = test system: EKVX NSCLC
[24] = test system: U251 CNS
[25] = test system: UACC-257 melanoma
[26] = test system: UACC-62 melanoma
[27] = test system: HOP-62 NSCLC
[28] = test system: SK-MEL-28 melanoma
[29] = test system: RPMI-8226 leukemia
[30] = test system: SN12C renal
[31] = test system: IGROV1 ovarian
[32] = test system: HCT-116 colon
[33] = test system: MDA-MB-435
[34] = test system: NCI-H460 lung
[35] = test system: SF-268 CNS
[36] = test system: MOLT-4 leukemia
[37] = test system: MCF7 breast
[38] = test system: OVCAR-4 ovarian
[39] = test system: NCI/ADR-RES ovarian
[40] = test system: NCI-H23 lung
[41] = test system: SR leukemia
[42] = test system: NCI-H226 lung
[43] = test system: RXF 393 renal
[44] = test system: OVCAR-8 ovarian
[45] = test system: SF-295 CNS
[46] = test system: M14 melanoma
[47] = test system: A549 NSCLC
[48] = test system: UO-31 renal
[49] = test system: KM12 colon
[50] = test system: HS 578T breast
[51] = test system: T-47D breast
[52] = test system: MDA-MB-231 breast
[53] = test system: OVCAR-5 ovarian
[54] = test system: PC-3 prostate
[55] = test system: SW-620 colon
[56] = test system: SK-MEL-5 melanoma
[57] = test system: CCRF-CEM leukemia
[58] = test system: LOX IMVI melanoma

CCN(CC)Cc1cc(Nc2c3ccccc3nc3c4ccccc4n(C)c23)cc(CN(CC)CC)c1O
TGI [1]: 15.2 µM | TGI [2]: 19.2 µM | TGI [3]: 13.8 µM | TGI [4]: 17.2 µM | TGI [5]: 14.9 µM | TGI [6]: 14.4 µM | TGI [7]: 32.5 µM | TGI [8]: 12.2 µM | TGI [9]: 11.1 µM | TGI [10]: 28.1 µM | TGI [11]: 27.4 µM | TGI [12]: 23.3 µM | TGI [13]: 11.2 µM | TGI [14]: > 35000 nM | TGI [15]: 29.2 µM | TGI [16]: 7.6 µM | TGI [17]: 5.25 µM | TGI [18]: 25.2 µM | TGI [19]: 11.8 µM | TGI [20]: 18.4 µM | TGI [21]: 10.8 µM | TGI [22]: 4.77 µM | TGI [23]: 21.4 µM | TGI [24]: 20.1 µM | TGI [25]: 7.07 µM | TGI [26]: 10.4 µM | TGI [27]: 20.4 µM | TGI [28]: 6.34 µM | TGI [29]: > 100 µM | TGI [30]: 20.4 µM | TGI [31]: 24.6 µM | TGI [32]: 11 µM | TGI [33]: 10.2 µM | TGI [34]: 16 µM | TGI [35]: 28.8 µM | TGI [36]: > 33.3 µM | TGI [37]: 19.3 µM | TGI [38]: 18 µM | TGI [39]: 8.89 µM | TGI [40]: 27 µM | TGI [41]: 10.7 µM | TGI [42]: 18.4 µM | TGI [43]: 10.1 µM | TGI [44]: 20.8 µM | TGI [45]: 17.6 µM | TGI [46]: 3.37 µM | TGI [47]: 31.9 µM | TGI [48]: 6.68 µM | TGI [49]: 20.7 µM | TGI [50]: 26.6 µM | TGI [51]: 15.7 µM | TGI [52]: 13.4 µM | TGI [53]: 22.1 µM | TGI [54]: 11.8 µM | TGI [55]: 13.3 µM | TGI [56]: 3.72 µM | TGI [57]: 14.2 µM

CCN1CCN(c2cc(C)nc(N(CCNc3ccnc4cc(Cl)ccc34)Cc3ccc4c(c3)OCO4)n2)CC1
GI50 [1]: 1520 nM | TGI [1]: 3.12 µM | GI50 [2]: 2090 nM | TGI [2]: 4.22 µM | GI50 [3]: 1860 nM | TGI [3]: 4.39 µM | GI50 [4]: 1210 nM | TGI [4]: 3.71 µM | GI50 [5]: 1490 nM | TGI [5]: 2.9 µM | GI50 [6]: 875 nM | TGI [6]: 2.69 µM | GI50 [7]: 2120 nM | TGI [7]: 5.34 µM | GI50 [8]: 1900 nM | TGI [8]: 3.84 µM | GI50 [9]: 1540 nM | TGI [9]: 3.13 µM | GI50 [11]: 2670 nM | TGI [11]: 8.49 µM | GI50 [12]: 2230 nM | TGI [12]: 7.25 µM | GI50 [13]: 1200 nM | TGI [13]: 2.64 µM | GI50 [14]: 355 nM | TGI [14]: 1700 nM | GI50 [16]: 1630 nM | TGI [16]: 3.15 µM | GI50 [17]: 1670 nM | TGI [17]: 3.37 µM | GI50 [18]: 1330 nM | TGI [18]: 2.72 µM | GI50 [19]: 1160 nM | TGI [19]: 3.71 µM | GI50 [58]: 1500 nM | TGI [58]: 2890 nM | GI50 [20]: 1500 nM | TGI [20]: 3.3 µM | GI50 [21]: 1510 nM | TGI [21]: 3.26 µM | GI50 [22]: 1580 nM | TGI [22]: 3.18 µM | GI50 [23]: 2330 nM | TGI [23]: 7.91 µM | GI50 [24]: 1490 nM | TGI [24]: 3.16 µM | GI50 [25]: 2050 nM | TGI [25]: 3.88 µM | GI50 [26]: 1830 nM | TGI [26]: 3.63 µM | GI50 [27]: 1940 nM | TGI [27]: 5.21 µM | GI50 [28]: 1720 nM | TGI [28]: 3.5 µM | GI50 [29]: 1200 nM | TGI [29]: 3.37 µM | GI50 [30]: 1830 nM | TGI [30]: 3.71 µM | GI50 [31]: 1480 nM | TGI [31]: 3.92 µM | GI50 [32]: 1030 nM | TGI [32]: 2.39 µM | GI50 [33]: 1480 nM | TGI [33]: 2.9 µM | GI50 [34]: 1770 nM | TGI [34]: 3.61 µM | GI50 [35]: 1800 nM | TGI [35]: 3.72 µM | GI50 [36]: 728 nM | TGI [36]: 3.1 µM | GI50 [37]: 1190 nM | TGI [37]: 2.83 µM | GI50 [38]: 1930 nM | TGI [38]: 6.18 µM | GI50 [39]: 1600 nM | TGI [39]: 3.51 µM | GI50 [40]: 1880 nM | TGI [40]: 5.01 µM | GI50 [41]: 189 nM | TGI [41]: 0.544 µM | GI50 [42]: 2430 nM | TGI [42]: 7.05 µM | GI50 [43]: 688 nM | TGI [43]: 2.12 µM | GI50 [44]: 1640 nM | TGI [44]: 3.36 µM | GI50 [45]: 1450 nM | TGI [45]: 2.98 µM | GI50 [46]: 1490 nM | TGI [46]: 2.95 µM | GI50 [47]: 2130 nM | TGI [47]: 4.93 µM | GI50 [48]: 1360 nM | TGI [48]: 3.3 µM | GI50 [49]: 1800 nM | TGI [49]: 5.97 µM | GI50 [50]: 1790 nM | TGI [50]: 4.15 µM | GI50 [51]: 1990 nM | TGI [51]: 4.96 µM | GI50 [52]: 1370 nM | TGI [52]: 3 µM | GI50 [53]: 2530 nM | TGI [53]: 6.51 µM | GI50 [54]: 1980 nM | TGI [54]: 7 µM | GI50 [55]: 1580 nM | TGI [55]: 3.45 µM | GI50 [56]: 1560 nM | TGI [56]: 2.93 µM | GI50 [57]: 728 nM | TGI [57]: 4.69 µM
